Data as given in the NIST ThermoML archive (doi:10.1021/je100832h).

Conditions: Liquid; for mass density: 101.32 kPa, Vibrating tube method

CCCCCCCC [octane]
Conditions | mass density [kg/m3]
291.15 K | 704.13
298.15 K | 698.6
318.15 K | 682.16
328.15 K | 674.15

Ebulliometric method (Recirculating still)
Conditions | vapor or sublimation pressure [kPa]
350.64 K | 21.09
353.05 K | 23.14
355.76 K | 25.56
356.97 K | 26.7
358.82 K | 28.55
361.59 K | 31.58
363.86 K | 34.16
365.82 K | 36.53
367.65 K | 38.88
369.09 K | 40.82
370.77 K | 43.19
372.39 K | 45.57
374.01 K | 48.04
375.61 K | 50.59
377 K | 52.9
378.25 K | 55.02
380.03 K | 58.2
381.34 K | 60.63
382.42 K | 62.68
383.64 K | 65.07
384.76 K | 67.34
386.29 K | 70.52
387.45 K | 73.02
388.55 K | 75.43
389.65 K | 77.94
390.56 K | 80.05
391.6 K | 82.51
392.6 K | 84.94
393.47 K | 87.09
394.37 K | 89.39
395.14 K | 91.38
396.04 K | 93.64
396.95 K | 96.14
397.9 K | 98.73
398.19 K | 99.59
398.59 K | 100.68
398.83 K | 101.32
399.61 K | 103.61
400.53 K | 106.23
401.23 K | 108.3
402.03 K | 110.71
402.81 K | 113.09
403.32 K | 114.65
403.81 K | 116.17
404.1 K | 117.1
404.79 K | 119.25
405.51 K | 121.6
406.27 K | 124.1
407.03 K | 126.61
407.89 K | 129.5
408.75 K | 132.46
409.62 K | 135.53
410.15 K | 137.42
410.83 K | 139.87
422.1 K | 185.56
422.64 K | 188.02
423.26 K | 190.85
423.76 K | 193.15
424.15 K | 195.02
424.76 K | 197.87
425.2 K | 199.97

CCOC(C)=O [ethyl acetate]
Conditions | mass density [kg/m3]
291.15 K | 902.88
298.15 K | 894.4
318.15 K | 869.6
328.15 K | 857.17

Ebulliometric method (Recirculating still)
Conditions | vapor or sublimation pressure [kPa]
297.17 K | 11.89
303.35 K | 16.04
306.25 K | 18.33
308.86 K | 20.64
310.67 K | 22.44
312.53 K | 24.34
315.44 K | 27.63
318.46 K | 31.33
321.01 K | 34.85
323.47 K | 38.43
324.8 K | 40.61
327.41 K | 44.98
329.77 K | 49.27
331.51 K | 52.56
333.07 K | 55.72
335.02 K | 59.91
336.33 K | 62.83
337.91 K | 66.49
339.09 K | 69.34
340.23 K | 72.26
341.69 K | 76.02
343.03 K | 79.83
344.11 K | 82.56
345.53 K | 86.85
346.86 K | 90.81
348.09 K | 94.63
348.75 K | 96.74
349.45 K | 98.97
349.56 K | 99.36
349.76 K | 100.07
349.93 K | 100.68
350.15 K | 101.32
351.12 K | 104.65
351.77 K | 106.84
352.12 K | 108.13
352.94 K | 111.21
353.91 K | 114.65
354.43 K | 116.46
354.93 K | 118.56
355.5 K | 120.68
355.91 K | 122.31
356.37 K | 124
357.35 K | 127.89
357.92 K | 130
358.74 K | 133.45
359.44 K | 136.34
360.03 K | 139.07
360.88 K | 142.55
361.73 K | 146.37
362.62 K | 150.43
363.72 K | 155.58
364.25 K | 157.94
364.81 K | 160.53
365.52 K | 163.99
366.29 K | 167.81
367 K | 171.33
367.64 K | 174.65
367.98 K | 176.37
368.83 K | 180.88
369.49 K | 184.43
370.07 K | 187.47
370.69 K | 190.92
371.5 K | 195.35

CCCCCCCCCC [decane]
Conditions | mass density [kg/m3]
291.15 K | 731.22
298.15 K | 726.2
318.15 K | 710.9
328.15 K | 703.34

Ebulliometric method (Recirculating still)
Conditions | vapor or sublimation pressure [kPa]
386.86 K | 15.86
390.21 K | 17.94
393.85 K | 20.43
397.62 K | 23.28
400.9 K | 26.08
403.65 K | 28.54
406.2 K | 31.1
408.52 K | 33.59
411.2 K | 36.58
413.6 K | 39.44
414.92 K | 41.05
416.83 K | 43.54
419.01 K | 46.44
420.74 K | 48.95
422.51 K | 51.55
424.11 K | 54.05
425.85 K | 56.84
427.5 K | 59.6
429.13 K | 62.41
430.69 K | 65.23
432.29 K | 68.16
433.61 K | 70.76
435.15 K | 73.71
436.57 K | 76.61
437.52 K | 78.69
438.92 K | 81.7
440.19 K | 84.46
441.29 K | 86.98
442.23 K | 89.2
443.35 K | 91.83
444.37 K | 94.3
444.8 K | 95.2
446.16 K | 98.41
446.55 K | 99.37
446.97 K | 100.62
447.3 K | 101.32
448.21 K | 103.75
449.29 K | 106.58
450.33 K | 109.39
451.31 K | 112.15
452.1 K | 114.36
452.89 K | 116.67
453.87 K | 119.46
454.7 K | 121.94
455.13 K | 123.25
455.92 K | 125.63
456.82 K | 128.4
457.59 K | 130.81
458.4 K | 133.37
459.16 K | 135.82
460.02 K | 138.64
460.42 K | 140
461.26 K | 142.82
462.1 K | 145.65
463.1 K | 148.84
463.75 K | 151.4
464.39 K | 153.69
465.12 K | 156.4
465.77 K | 158.65
466.55 K | 161.57
467.33 K | 164.47
468.04 K | 167.22
468.81 K | 170.16
469.38 K | 172.45
470.03 K | 175.03
470.6 K | 177.34
471.2 K | 179.77
471.77 K | 182.08
472.23 K | 184.14
472.78 K | 186.39
473.35 K | 188.8
474.12 K | 191.58
474.81 K | 194.61
475.37 K | 197.04

CCCCCCC [heptane]
Conditions | mass density [kg/m3]
291.15 K | 685.28
298.15 K | 679.48
318.15 K | 662.06
328.15 K | 653.6

Ebulliometric method (Recirculating still)
Conditions | vapor or sublimation pressure [kPa]
305.26 K | 8.32
310.22 K | 10.55
314.93 K | 13.09
316.5 K | 14.07
319.71 K | 16.19
323.62 K | 19.1
326.44 K | 21.45
329.04 K | 23.79
331.48 K | 26.14
333.21 K | 27.97
335.5 K | 30.51
337.48 K | 32.84
339.56 K | 35.53
341.35 K | 37.87
342.96 K | 40.12
344.47 K | 42.35
346.04 K | 44.75
347.28 K | 46.71
348.72 K | 49.09
350.12 K | 51.49
351.21 K | 53.41
352.49 K | 55.76
353.62 K | 57.88
354.79 K | 60.18
356.25 K | 63.11
357.84 K | 66.42
358.68 K | 68.27
359.98 K | 71.15
361.33 K | 74.25
362.3 K | 76.55
363.32 K | 79
364.24 K | 81.28
365.32 K | 84.05
366.2 K | 86.3
366.87 K | 88.1
367.97 K | 91.09
368.83 K | 93.46
369.84 K | 96.33
370.85 K | 98.98
371.11 K | 100
371.35 K | 100.68
371.56 K | 101.32
372.42 K | 103.92
373.25 K | 106.48
373.98 K | 108.71
374.93 K | 111.77
375.41 K | 113.35
376.29 K | 116.21
377.17 K | 119.14
377.51 K | 120.32
378.49 K | 123.7
379.37 K | 126.8
380.26 K | 130
380.83 K | 132.04
392.89 K | 182.39
393.79 K | 186.6
394.43 K | 189.67
395.1 K | 192.97
395.73 K | 196.04
396.09 K | 197.85
396.5 K | 199.97

CCCCCC [hexane]
Conditions | mass density [kg/m3]
291.15 K | 661.17
298.15 K | 654.9
318.15 K | 636.5
328.15 K | 627

Ebulliometric method (Recirculating still)
Conditions | vapor or sublimation pressure [kPa]
292.98 K | 15.88
296.27 K | 18.39
298.95 K | 20.69
302.2 K | 23.81
304.49 K | 26.19
306.76 K | 28.77
308.28 K | 30.68
310.14 K | 32.97
311.96 K | 35.53
313.7 K | 37.95
315.07 K | 40.1
316.51 K | 42.3
317.91 K | 44.59
319.58 K | 47.35
320.83 K | 49.63
322.02 K | 51.87
323.45 K | 54.51
324.35 K | 56.42
325.74 K | 59.15
327.09 K | 62.05
327.99 K | 64.02
329.13 K | 66.61
330.14 K | 68.93
330.93 K | 70.86
331.87 K | 73.11
332.87 K | 75.62
333.77 K | 78.04
334.61 K | 80.11
335.65 K | 82.94
336.53 K | 85.4
337.38 K | 87.73
338.26 K | 90.28
339.25 K | 93.18
340.1 K | 95.79
340.92 K | 98.28
341.17 K | 99.08
341.6 K | 100.39
341.88 K | 101.32
342.34 K | 102.83
343.01 K | 104.95
343.62 K | 106.98
344.52 K | 110.01
344.69 K | 110.65
345.43 K | 113.16
346.05 K | 115.31
346.66 K | 117.46
347.36 K | 119.99
348.05 K | 122.52
348.44 K | 124.01
349.04 K | 126.23
349.61 K | 128.44
349.82 K | 129.32
350.34 K | 131.23
350.82 K | 133.07
351.42 K | 135.49
351.93 K | 137.54
352.53 K | 139.99
352.83 K | 141.31
353.22 K | 142.8
353.87 K | 145.75
354.23 K | 147.04
354.71 K | 149.34
355.4 K | 152.14
355.66 K | 153.31
356.04 K | 155.14
356.52 K | 157.29
357.01 K | 159.38
357.38 K | 161.05
357.8 K | 162.94
358.47 K | 166.02
358.88 K | 167.98
359.18 K | 169.31
359.69 K | 171.84
359.9 K | 172.89
360.51 K | 175.78
360.8 K | 177.31
361.09 K | 178.67
361.54 K | 180.95
361.86 K | 182.61
362.43 K | 185.32
362.68 K | 186.64
362.98 K | 188.2
363.52 K | 191.05
363.95 K | 193.35

CCCCC [pentane]
Conditions | mass density [kg/m3] | vapor or sublimation pressure [kPa]
291.15 K | 628.22 | –
298.15 K | 621.35 | –
309.3 K | – | 101.32
